Experimental findings from patent US20250179073A1, “TRICYCLIC HETEROCYCLE COMPOUNDS AS IAP ANTAGONISTS” (Ascentage Pharma (Suzhou) Co., Ltd., priority 2022, published 2025) are described below.

Usually IC50 stands for the concentration that inhibits the measured activity by half.

Molecules are shown by their SMILES.

One assay deals with MDA-MB-231 cells. Kind of assay: Cell proliferation assay (CellTiter-Glo), MDA-MB-231. The class given is cell-based. The following applies: Homo sapiens, MDA-MB-231, 72 h, 72 h treatment, Celltiter-Glo luminescence. The method, boiled down: (§1)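 MDA-MB-231 (RPMI-1640/10% FBS) and EVSA-T (MEM/10% FBS) cells, 10000 cells/well, exposed 72 h to compound at […]. Viability read by CellTiter-Glo luminescence after 15 min at room temperature. IC50 from control-normalised curve fitting.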
(In general: Cellular ATP, detected with luciferase, serves as a proxy for viable cell number.)

A further assay relates to EVSA-T cells. Description: Cell proliferation assay (CellTiter-Glo), EVSA-T. Format: cell-based. The following applies: Homo sapiens, EVSA-T, 72 h, 72 h treatment, Celltiter-Glo luminescence. Summed up:
as §1

For the compound `C[C@@H]1CN(CC(=O)N2CC(C)(C)c3c2cc(Cc2ccc(F)cc2)c2nnc(C#N)n32)[C@@H](CN2CCOC[C@H]2C)CN1` [Compound 153, 4-(4-fluorobenzyl)-8,8-dimethyl-6-(2-((2R,5R)-5-methyl-2-(((R)-3-methylmorpholino)methyl)piperazin-1-yl)acetyl)-7,8-dihydro-6H-pyrrolo[2,3-e][1,2,4]triazolo[4,3-a]pyridine-1-carbonitrile], the values for the IC50 in the assay on MDA-MB-231 cells and in the assay with EVSA-T cells were 38 nM and 5 nM, respectively.

Consider `C[C@@H]1CN(CC(=O)N2CC(C)(C)c3c2cc(Cc2ccc(F)cc2)c2nc(N4CCN(C)C4=O)nn32)[C@@H](CN2CCOC[C@H]2C)CN1` [Compound 235, 1-(4-(4-fluorobenzyl)-8,8-dimethyl-6-(2-((2R,5R)-5-methyl-2-(((R)-3-methylmorpholino)methyl)piperazin-1-yl)acetyl)-7,8-dihydro-6H-pyrrolo[2,3-e][1,2,4]triazolo[1,5-a]pyridin-2-yl)-3-methylimidazolidin-2-one], for which the IC50 with MDA-MB-231 cells stood at 38 nM; in the assay on EVSA-T cells, 1.3 nM.

Consider `C[C@@H]1CN(CC(=O)N2CC(C)(C)c3c2cc(Cc2ccc(F)cc2)c2nn(CC4(O)CC4)c(=O)n32)[C@@H](CN2CCOC[C@H]2C)CN1` [Compound 240, 4-(4-fluorobenzyl)-2-((1-hydroxycyclopropyl)methyl)-8,8-dimethyl-6-(2-((2R,5R)-5-methyl-2-(((R)-3-methylmorpholino)methyl)piperazin-1-yl)acetyl)-2,6,7,8-tetrahydro-1H-pyrrolo[2,3-e][1,2,4]triazolo[4,3-a]pyridin-1-one], for which the figures for the IC50 with MDA-MB-231 cells and in the assay with EVSA-T cells were 25 nM and 5.9 nM, respectively.

With `C[C@@H]1CN(CC(=O)N2CC3(CCOCC3)c3c2cc(Cc2ccc(F)cc2)c2ncnn32)[C@@H](CN2CCOC[C@H]2C)CN1` [Compound 180, 1-(4′-(4-fluorobenzyl)-2,3,5,6-tetrahydrospiro[pyran-4,8′-pyrrolo[2,3-e][1,2,4]triazolo[1,5-a]pyridin]-6′(7′H)-yl)-2-((2R,5R)-5-methyl-2-(((R)-3-methylmorpholino)methyl)piperazin-1-yl)ethan-1-one], the IC50 is 615 nM in the assay on MDA-MB-231 cells and 56 nM in the assay with EVSA-T cells.

Regarding `C[C@@H]1CN(CC(=O)N2CC(C)(C)c3c2cc(Cc2ccc(F)cc2)c2nc(C4CCOC4)nn32)[C@@H](CN2CCOC[C@H]2C)CN1` (stereo partly drawn) [Compound 163, 1-(4-(4-fluorobenzyl)-8,8-dimethyl-2-(tetrahydrofuran-3-yl)-7,8-dihydro-6H-pyrrolo[2,3-e][1,2,4]triazolo[1,5-a]pyridin-6-yl)-2-((2R,5R)-5-methyl-2-(((R)-3-methylmorpholino)methyl)piperazin-1-yl)ethan-1-one], the half-maximal inhibitory concentration (IC50) amounted to 28 nM in the assay with MDA-MB-231 cells and 2 nM with EVSA-T cells.

As for `C[C@@H]1CN(CC(=O)N2CC(C)(C)c3c2cc(Cc2ccc(F)cc2)c2nc(C4CCOCC4)nn32)[C@@H](CN2CCOC[C@H]2C)CN1` [Compound 140, 1-(4-(4-fluorobenzyl)-8,8-dimethyl-2-(tetrahydro-2H-pyran-4-yl)-7,8-dihydro-6H-pyrrolo[2,3-e][1,2,4]triazolo[1,5-a]pyridin-6-yl)-2-((2R,5R)-5-methyl-2-(((R)-3-methylmorpholino)methyl)piperazin-1-yl)ethan-1-one], the IC50 is 45 nM with MDA-MB-231 cells and 3 nM with EVSA-T cells.

As to `C[C@@H]1CN(CC(=O)N2CC(C)(C)c3c2cc(Cc2ccc(F)cc2)c2nn(CC(F)(F)CO)c(=O)n32)[C@@H](CN2CCOC[C@H]2C)CN1` [Compound 242, 2-(2,2-difluoro-3-hydroxypropyl)-4-(4-fluorobenzyl)-8,8-dimethyl-6-(2-((2R,5R)-5-methyl-2-(((R)-3-methylmorpholino)methyl)piperazin-1-yl)acetyl)-2,6,7,8-tetrahydro-1H-pyrrolo[2,3-e][1,2,4]triazolo[4,3-a]pyridin-1-one], the IC50 was determined as 18 nM in the assay on MDA-MB-231 cells and 2.7 nM in the assay on EVSA-T cells.

Turning to `C[C@@H]1CN(CC(=O)N2CC(C)(C)c3c2cc(Cc2ccc(F)cc2)c2nn(C4COC4)c(=O)n32)[C@@H](CN2CCOC[C@H]2C)CN1` [Compound 210, 4-(4-fluorobenzyl)-8,8-dimethyl-6-(2-((2R,5R)-5-methyl-2-(((R)-3-methylmorpholino)methyl)piperazin-1-yl)acetyl)-2-(oxetan-3-yl)-2,6,7,8-tetrahydro-1H-pyrrolo[2,3-e][1,2,4]triazolo[4,3-a]pyridin-1-one], the IC50 came out at 33 nM in the assay on MDA-MB-231 cells and 3 nM with EVSA-T cells.

In the case of `C[C@@H]1CN(CC(=O)N2CC(C)(C)c3c2cc(Cc2ccc(F)cc2)c2nn(C[C@H]4COCCO4)c(=O)n32)[C@@H](CN2CCOC[C@H]2C)CN1` [Compound 237, 2-(((S)-1,4-dioxan-2-yl)methyl)-4-(4-fluorobenzyl)-8,8-dim ethyl-6-(2-((2R,5R)-5-methyl-2-(((R)-3-methylmorpholino)methyl)piperazin-1-yl)acetyl)-2,6,7,8-tetrahydro-1H-pyrrolo[2,3-e][1,2,4]triazolo[4,3-a]pyridin-1-one], the IC50 in the assay on MDA-MB-231 cells is 46 nM; with EVSA-T cells, 1.5 nM.

As for `C[C@@H]1CN(CC(=O)N2CC(C)(C)c3c2cc(Cc2ccc(F)cc2)c2nc(N4CC5CC(C4)O5)nn32)[C@@H](CN2CCOC[C@H]2C)CN1` [Compound 189, 1-(2-(6-oxa-3-azabicyclo[3.1.1]heptan-3-yl)-4-(4-fluorobenzyl)-8,8-dimethyl-7,8-dihydro-6H-pyrrolo[2,3-e][1,2,4]triazolo[1,5-a]pyridin-6-yl)-2-((2R,5R)-5-methyl-2-(((R)-3-methylmorpholino)methyl)piperazin-1-yl)ethan-1-one], the IC50 in the assay on MDA-MB-231 cells was found to be 10 nM; in the assay on EVSA-T cells it was 2 nM.

With `Cc1cc(F)ccc1Cc1cc2c(n3ncnc13)C(C)(C)CN2C(=O)CN1C[C@@H](C)NC[C@@H]1CN1CCOC[C@H]1C` [Compound 115, 1-(4-(4-fluoro-2-methylbenzyl)-8,8-dimethyl-7,8-dihydro-6H-pyrrolo[2,3-e][1,2,4]triazolo[1,5-a]pyridin-6-yl)-2-((2R,5R)-5-methyl-2-(((R)-3-methylmorpholino)methyl)piperazin-1-yl)ethan-1-one], the IC50 in the assay on MDA-MB-231 cells was 160 nM; with EVSA-T cells, 30 nM.

Turning to `C[C@@H]1CN(CC(=O)N2CC(C)(C)c3c2cc(Cc2ccc(F)cc2)c2nn([C@@H]4CCOC4)c(=O)n32)[C@@H](CN2CCOC[C@H]2C)CN1` [Compound 228, 4-(4-fluorobenzyl)-8,8-dimethyl-6-(2-((2R,5R)-5-methyl-2-(((R)-3-methylmorpholino)methyl)piperazin-1-yl)acetyl)-2-((R)-tetrahydrofuran-3-yl)-2,6,7,8-tetrahydro-1H-pyrrolo[2,3-e][1,2,4]triazolo[4,3-a]pyridin-1-one], the 50% inhibitory concentration (IC50) in the assay on MDA-MB-231 cells was determined as 9 nM; with EVSA-T cells, 2 nM.

Regarding `C[C@@H]1CN(CC(=O)N2CC(C)(C)c3c2cc(Cc2ccc(F)cc2)c2ncnn32)[C@@H](CN2Cc3cnccc3C2=O)CN1` [Compound 96, 2-(((2R,5R)-1-(2-(4-(4-fluorobenzyl)-8,8-dimethyl-7,8-dihydro-6H-pyrrolo[2,3-e][1,2,4]triazolo[1,5-a]pyridin-6-yl)-2-oxoethyl)-5-methylpiperazin-2-yl)methyl)-2,3-dihydro-1H-pyrrolo[3,4-c]pyridin-1-one], the IC50 in the assay with MDA-MB-231 cells was 52 nM; in the assay with EVSA-T cells, 5 nM.

Turning to `C[C@@H]1CN(CC(=O)N2CC(C)(C)c3c2cc(Cc2ccc(F)cc2)c2ncnn32)[C@@H](CN2CC3CCC2CO3)CN1` (stereo partly drawn) [Compound 214, 2-((2R,5R)-2-((2-oxa-5-azabicyclo[2.2.2]octan-5-yl)methyl)-5-methylpiperazin-1-yl)-1-(4-(4-fluorobenzyl)-8,8-dimethyl-7,8-dihydro-6H-pyrrolo[2,3-e][1,2,4]triazolo[1,5-a]pyridin-6-yl)ethan-1-one], the figures for the IC50 with MDA-MB-231 cells and in the assay with EVSA-T cells were 49 nM and 8 nM, respectively.

In the case of `C[C@@H]1CN(CC(=O)N2CC(C)(C)c3c2cc(Cc2ccc(F)cc2)c2nn(-c4ncccn4)c(=O)n32)[C@@H](CN2CCOC[C@H]2C)CN1` [Compound 230, 4-(4-fluorobenzyl)-8,8-dimethyl-6-(2-((2R,5R)-5-methyl-2-(((R)-3-methylmorpholino)methyl)piperazin-1-yl)acetyl)-2-(pyrimidin-2-yl)-2,6,7,8-tetrahydro-1H-pyrrolo[2,3-e][1,2,4]triazolo[4,3-a]pyridin-1-one], the figures for the IC50 with MDA-MB-231 cells and in the assay on EVSA-T cells were 38 nM and 8 nM, respectively.

`COC(=O)Nc1nc2c(Cc3ccc(F)cc3)cc3c(n2n1)C(C)(C)CN3C(=O)CN1C[C@@H](C)NC[C@@H]1CN1CCOC[C@H]1C` [Compound 234, methyl (4-(4-fluorobenzyl)-8,8-dimethyl-6-(2-((2R,5R)-5-methyl-2-(((R)-3-methylmorpholino)methyl)piperazin-1-yl)acetyl)-7,8-dihydro-6H-pyrrolo[2,3-e][1,2,4]triazolo[1,5-a]pyridin-2-yl)carbamate]: the IC50 with MDA-MB-231 cells amounted to 10 nM; in the assay with EVSA-T cells, 0.7 nM.

For the compound `Cc1nc2c(Cc3ccc(F)cc3)cc3c(n2c1C)C(C)(C)CN3C(=O)CN1C[C@@H](C)NC[C@@H]1CN1CCOC[C@H]1C` [Compound 109, 1-(4-(4-fluorobenzyl)-1,2,8,8-tetramethyl-7,8-dihydro-6H-imidazo[1,2-a]pyrrolo[2,3-e]pyridin-6-yl)-2-((2R,5R)-5-methyl-2-(((R)-3-methylmorpholino)methyl)piperazin-1-yl)ethan-1-one], the IC50 stood at 61 nM in the assay on MDA-MB-231 cells and 9 nM in the assay on EVSA-T cells.

For `C[C@@H]1CN(CC(=O)N2CC(C)(C)c3c2cc(Cc2ccc(F)cc2)c2nc(N4C[C@@H](O)[C@@H](O)C4)nn32)[C@@H](CN2CCOC[C@H]2C)CN1` [Compound 229, 1-(2-((3R,4S)-3,4-dihydroxypyrrolidin-1-yl)-4-(4-fluorobenzyl)-8,8-dimethyl-7,8-dihydro-6H-pyrrolo[2,3-e][1,2,4]triazolo[1,5-a]pyridin-6-yl)-2-((2R,5R)-5-methyl-2-(((R)-3-methylmorpholino)methyl)piperazin-1-yl)ethan-1-one], the figures for the IC50 in the assay on MDA-MB-231 cells and in the assay on EVSA-T cells were 76 nM and 7 nM, respectively.
